From patent US20250026765A1, “SPIROHETEROCYCLE DERIVATIVE HAVING SEROTONIN RECEPTOR BINDING ACTIVITY” (Shionogi & Co., Ltd., priority 2021, published 2025)
Where two headings read alike, the source gives them in different places.

What was measured:
[1] = target: human recombinant 5-HT2A receptor (Homo sapiens (Human), UniProt P28223); assay: 5-HT2A receptor binding inhibition test ([3H]-Ketanserin); settings: Jump-In HEK cell membrane, 25° C. 1.5 hours
Procedure: Test Example 1: 5-HT2A Receptor Binding Inhibition Test
(§1) (Each Experimental Condition)
Cell membrane: 15 μg of Jump-In HEK cell membrane (expressing human recombinant 5-HT2A receptor) per well
(§2) Assay buffer: Tris-HCl 50 mmol/L (pH 7.4) containing NaCl 120 mmol/L, MgCl2·6H2O 1 mmol/L, KCl 5 mmol/L, 0.1% BSA and CaCl2 2 mmol/L
Radioactive ligand: [^3H]-Ketanserin with a final concentration of around Kd value calculated by the following method
Non-specific ligand: Serotonin HCl with a final concentration of 500 μmol/L
(§3) The Kd value is calculated when the lot of cell membrane is changed. In advance, 0.5 μL of a 1 mmol/L compound for non-specific binding calculation dissolved in DMSO or DMSO is dispensed into a microplate, and the cell membrane is diluted with an Assay buffer. The radioactive ligand solution is serially diluted and the count is confirmed with a liquid scintillator. Assay buffer containing diluted cell membrane is dispensed into a microplate at 50 μL/well. Then, the radioactive ligand solution is dispensed into a microplate at 50 μL/well, and the plate is sealed. It is allowed to stand at room temperature (25° C.) for 1.5 hours. During this period, 50 mmol/L Tris-HCl (pH 7.4) is dispensed into a GF/B UniFilter plate at 50 μL/well and allowed to stand at 4° C. for 1 hour or longer. After that, filtration is performed with Cell harvester (PerkinElmer). The radioactive ligand solution is dispensed into an empty well of the GF/B UniFilter plate at 10 μL/well. After the GF/B UniFilter plate is dried at room temperature, MicroScinti 20 is dispensed into the GF/B UniFilter plate at 50 μL/well to seal the plate. The GF/B UniFilter plate is allowed to stand overnight at room temperature. The radioactivity of [^3H]-Ketanserin bound to the 5-HT2A receptor is measured using Microbeta2 (PerkinElmer) at a measurement time of 1 min/well. The Saturation curve is drawn from the measured value, and the Kd value is calculated from the slope of the Scatchard Plot.
(§4) (Binding Test of the Compound According to the Present Invention)
In advance, 0.5 μL of the compound solution dissolved in DMSO is dispensed into a microplate, and the cell membrane and the hot ligand are diluted with Assay buffer, respectively. Then, the Assay buffer containing the diluted cell membrane is dispensed into a microplate at 50 μL/well. Then, the radioactive ligand solution is dispensed into a microplate at 50 μL/well, and the plate is sealed. Then, it is allowed to stand at room temperature (25° C.) for 1.5 hours. During this period, 50 mmol/L Tris-HCl (pH 7.4) is dispensed into a GF/B UniFilter plate at 50 μL/well and allowed to stand at 4° C. for 1 hour or longer. After that, filtration is performed with Cell harvester (PerkinElmer). After the GF/B UniFilter plate is dried at room temperature, MicroScinti 20 is dispensed into the GF/B UniFilter plate at 50 μL/well to seal the plate. The GF/B UniFilter plate is allowed to stand overnight at room temperature. The radioactivity of [^3H]-Ketanserin bound to the 5-HT2A receptor is measured using Microbeta2 (PerkinElmer) at a measurement time of 1 min/well. The non-specific binding is calculated from the radioactivity of [^3H]-Ketanserin in the presence of 500 μmol/L Serotonin HCl which is the unlabeled ligand, and the total binding is calculated from the radioactivity of [^3H]-Ketanserin in the absence of the compound according to the present invention (Vehicle). Finally, the Ki value is calculated from the dose-response curve.
(§5) (The binding activity of the compound according to the present invention is calculated from the following binding inhibition rate (%).)
(§6) [formula] • a; mean cpm of non-specific binding • b; average cpm of total binding • c; cpm in the presence of the test compound

[2] = target: human recombinant 5-HT2C receptor (Homo sapiens (Human), UniProt P28335); assay: 5-HT2C receptor binding inhibition test ([3H]-Mesulergine); settings: Jump-In HEK cell membrane, 37° C. 2 hours
Procedure: Test Example 2: 5-HT2C Receptor Binding Inhibition Test
as §1
Cell membrane: 0.5 μg of Jump-In HEK cell membrane (expressing human recombinant 5-HT2C receptor) per well
as §2
Radioactive ligand: [^3H]-Mesulergine with a final concentration of around Kd value calculated by the following method
Non-specific ligand: Serotonin HCl with a final concentration of […]
as §3, with “37° C.” for “room temperature (25° C.)”, “2” for “1.5”, “[^3H]-Mesulergine” for “[^3H]-Ketanserin”, “5-HT2C” for “5-HT2A”
as §4
In advance, 0.5 μL of the compound solution dissolved in DMSO is dispensed into a microplate, and the cell membrane and the hot ligand are diluted with Assay buffer, respectively. Then, the Assay buffer containing the diluted cell membrane is dispensed into a microplate at 50 μL/well. Then, the radioactive ligand solution is dispensed into a microplate at 50 μL/well, and the plate is sealed. Then, it is allowed to stand at 37° C. for 2 hours. During this period, 50 mmol/L Tris-HCl (pH 7.4) is dispensed into a GF/B UniFilter plate at 50 μL/well and allowed to stand at 4° C. for 1 hour or longer. After that, filtration is performed with Cell harvester (PerkinElmer). After the GF/B UniFilter plate is dried at room temperature, MicroScinti 20 is dispensed into the GF/B UniFilter plate at 50 μL/well, and the plate is sealed. The GF/B UniFilter plate is allowed to stand overnight at room temperature. The radioactivity of [^3H]-Mesulergine bound to the 5-HT2C receptor is measured using Microbeta2 (PerkinElmer) at a measurement time of 1 min/well. The non-specific binding is calculated from the radioactivity of […] in the presence of 500 μmol/L Serotonin HCl which is the unlabeled ligand, and the total binding is calculated from the radioactivity of [^3H]-Mesulergine in the absence of the compound according to the present invention (Vehicle). Finally, the Ki value is calculated from the dose-response curve.
as §5, §6

[3] = read-out: human serotonin 5-HT2A receptor binding activity Ki
[4] = read-out: human serotonin 5-HT2C receptor binding activity Ki

human recombinant 5-HT2C receptor, sequence (P28335 33-458): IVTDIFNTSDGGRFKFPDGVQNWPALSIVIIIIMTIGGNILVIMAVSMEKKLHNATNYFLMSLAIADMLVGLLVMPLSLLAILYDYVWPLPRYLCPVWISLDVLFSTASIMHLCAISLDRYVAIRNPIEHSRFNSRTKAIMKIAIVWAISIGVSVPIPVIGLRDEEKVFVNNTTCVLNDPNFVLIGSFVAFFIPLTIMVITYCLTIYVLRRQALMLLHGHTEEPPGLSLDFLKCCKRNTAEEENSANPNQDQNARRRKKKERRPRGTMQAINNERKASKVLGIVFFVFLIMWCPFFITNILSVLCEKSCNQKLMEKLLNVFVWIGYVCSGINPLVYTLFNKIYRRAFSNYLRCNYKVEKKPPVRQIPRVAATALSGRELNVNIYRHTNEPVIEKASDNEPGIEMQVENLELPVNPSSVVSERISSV
human recombinant 5-HT2A receptor, sequence (P28223 whole entry): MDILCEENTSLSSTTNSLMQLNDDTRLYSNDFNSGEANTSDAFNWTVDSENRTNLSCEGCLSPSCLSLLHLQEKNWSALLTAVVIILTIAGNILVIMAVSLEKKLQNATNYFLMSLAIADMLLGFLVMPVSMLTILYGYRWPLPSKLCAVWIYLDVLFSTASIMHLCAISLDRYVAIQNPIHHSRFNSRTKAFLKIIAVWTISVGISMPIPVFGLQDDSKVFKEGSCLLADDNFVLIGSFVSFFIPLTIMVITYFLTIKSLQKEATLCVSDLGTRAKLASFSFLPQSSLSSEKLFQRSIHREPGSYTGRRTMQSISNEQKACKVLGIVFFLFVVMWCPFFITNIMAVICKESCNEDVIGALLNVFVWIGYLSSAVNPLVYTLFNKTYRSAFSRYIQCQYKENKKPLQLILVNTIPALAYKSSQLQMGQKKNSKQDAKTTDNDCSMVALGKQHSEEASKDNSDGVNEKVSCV

Row | SMILES | Ki ([1]; read-out: h-5-HT2A Ki) | Ki ([2]; read-out: h-5-HT2C Ki) | Ki [1, 3] | Ki [2, 4]
1 | CCCOc1ccc(CC2=NOC3(CCN(C)CC34CC4)N2Cc2cc(C)n(C)n2)cc1 (racemic) [Compound I-029] | < 10 nM | < 10 nM | – | –
2 | COc1ccc(CC2=NOC3(CCN(C)CC34CC4)N2Cc2cc(C)n(C)n2)cc1 (racemic) [Compound I-034] | < 10 nM | 10 to 100 nM | – | –
3 | Cc1cc(CN2C(Cc3ccc(OC(F)F)cc3)=NOC23CCN(C)CC32CC2)nn1C (racemic) [Compound I-035] | < 10 nM | < 10 nM | – | –
4 | CCCOc1ccc(CC2=NOC3(CCNCC34CC4)N2Cc2ccn(C)n2)cc1 (racemic) [Compound I-037] | < 10 nM | < 10 nM | – | –
5 | Cn1ccc(CN2C(Cc3ccc(OC4CC4)cc3)=NOC23CCNCC32CC2)n1 (racemic) [Compound I-038] | 10 to 100 nM | < 10 nM | – | –
6 | CCCOc1ccc(CNC2=NOC3(CCN(C)CC34CC4)N2Cc2ccn(C)n2)cc1 (racemic) [Compound I-040] | 100 to 500 nM | 100 to 500 nM | – | –
7 | CN1CCC2(ON=C(Cc3ccc(OC4CC4)cc3)N2Cc2ccn(C)n2)C2(CC2)C1 (racemic) [Compound I-041] | < 10 nM | < 10 nM | – | –
8 | CC(C)COc1ccc(CN(Cc2ccc(F)cn2)C2=NC(=O)C3(CCN(C)CC34CC4)N2)cc1 (racemic) [Compound I-042] | 10 to 100 nM | 10 to 100 nM | – | –
9 | CC(C)COc1ccc(CN(Cc2ccn(C)n2)C2=NC(=O)C3(CCN(C)CC34CC4)N2)cc1 (racemic) [Compound I-043] | 10 to 100 nM | 10 to 100 nM | – | –
10 | Cc1nc(CN(Cc2ccc(OCC(C)C)cc2)C2=NO[C@@]3(CCNC[C@H]3F)N2)co1 (racemic) [Compound I-085] | < 10 nM | < 10 nM | – | –
11 | CCCOc1ccc(CC2=NOC3(CCN(C)CC34CC4)N2Cc2ccn(C)n2)cc1 (single isomer, unassigned) [Compound I-044] | < 10 nM | < 10 nM | – | –
12 | CCCOc1ccc(CC2=NOC3(CCN(C)CC34CC4)N2Cc2ccn(C)n2)cc1 (single isomer, unassigned) [Compound I-045] | 10 to 100 nM | 100 to 500 nM | – | –
13 | CC(C)COc1ccc(CN(C2=NOC3(CCN(C)CC3)N2)C(C)c2ccc(F)cc2)cc1 (single isomer, unassigned) [Compound I-074] | 100 to 500 nM | 100 to 500 nM | – | –
14 | CC(C)COc1ccc(CC2=NOC3(CCN(C)CC3)N2Cc2ccc(F)cc2)cc1 [Compound I-001] | – | – | 4.82 nM | 16.7 nM
15 | CC(C)COc1ccc(C[C@H]2C(=O)NC3(CCN(C)CC3)N2Cc2ccc(F)cc2)cc1 [Compound I-002] | – | – | 11.1 nM | 27.1 nM
16 | CC(C)COc1ccc(CC2=NOC3(CCNCC3)N2Cc2ccc(F)cc2O)cc1 [Compound I-003] | – | – | 19.8 nM | 4.11 nM

Row | SMILES | Ki ([1]; read-out: h-5-HT2A Ki) | Ki ([2]; read-out: h-5-HT2C Ki) | Ki [1, 3] | Ki [2, 4]
17 | CC(C)COc1ccc(CC2=NOC3(CCN(C)CC3)N2Cc2ccc(F)cc2O)cc1 [Compound I-004] | < 10 nM | 10 to 100 nM | – | –
18 | CC(C)COc1ccc(CN=C2NC(=O)CC3(CCN(C)CC3)N2Cc2ccc(F)cc2)cc1 [Compound I-005] | – | – | 85.3 nM | 219 nM
19 | COc1ccc(CNC2=NOC3(CCN(C)CC3)N2Cc2ccc(F)cc2)cc1 [Compound I-006] | 100 to 500 nM | – | – | –
20 | CC(C)COc1ccc(CN(Cc2ccc(F)cn2)C2=NOC3(CCN(C)CC3)N2)cc1 [Compound I-007] | < 10 nM | 10 to 100 nM | – | –
21 | CC(C)COc1ccc(CCC2=NOC3(CCN(C)CC3)N2Cc2ccc(F)cc2)cc1 [Compound I-008] | 10 to 100 nM | 100 to 500 nM | – | –
22 | CC(C)COc1ccc(CN(Cc2ccn(C)n2)C2=NOC3(CCN(C)CC3)N2)cc1 [Compound I-009] | < 10 nM | < 10 nM | – | –
23 | CN1CCC2(CC1)NC(N(Cc1ccc(OCC(F)(F)C(F)F)cc1)Cc1ccn(C)n1)=NO2 [Compound I-010] | < 10 nM | < 10 nM | – | –
24 | Cc1nc(CN(Cc2ccc(OCC(C)C)cc2)C2=NOC3(CCN(C)CC3)N2)co1 [Compound I-011] | – | – | 1.22 nM | 0.585 nM
25 | CC(C)COc1ccc(CN(Cc2ccccn2)C2=NOC3(CCN(C)CC3)N2)cc1 [Compound I-012] | < 10 nM | 10 to 100 nM | – | –
26 | Cc1cccc(CN(Cc2ccc(OCC(C)C)cc2)C2=NOC3(CCN(C)CC3)N2)n1 [Compound I-013] | 10 to 100 nM | 10 to 100 nM | – | –
27 | CCCOc1ccc(CN(Cc2ccn(C)n2)C2=NOC3(CCN(C)CC3)N2)cc1 [Compound I-014] | < 10 nM | 10 to 100 nM | – | –
28 | CC(C)COc1ccc(CN(Cc2ccn(C(F)F)n2)C2=NOC3(CCN(C)CC3)N2)cc1 [Compound I-015] | < 10 nM | 10 to 100 nM | – | –
29 | Cc1ccc(CN(Cc2ccc(OCC(C)C)cc2)C2=NOC3(CCN(C)CC3)N2)nc1 [Compound I-016] | < 10 nM | < 10 nM | – | –
30 | CN1CCC2(CC1)NC(N(CC(=O)Nc1ccc(Cl)cc1)Cc1ccn(C)n1)=NO2 [Compound I-056] | 100 to 500 nM | – | – | –
31 | Cc1ccc(CN(Cc2ccc(OCC(C)C)cc2)C2=NC(=O)C3(CCN(C)CC3)N2)cn1 [Compound I-059] | 10 to 100 nM | – | – | –
32 | CC(C)COc1ccc(CN(Cc2ccc(F)cc2)C2=NOC3(CCN(C)CC3)N2)cc1 [Compound I-060] | – | 10 to 100 nM | – | –
